Data: patent publication US9932637B2, “Genetic polymorphisms associated with cardiovascular disorders and drug response, methods of detection and uses thereof” (CELERA CORPORATION, priority 2003, dated 2018)

Tested on: patients with prior myocardial infarction (CARE study)
Experiment: CARE: association of SNPs with pravastatin treatment in cardiovascular events prevention (logistic regression, odds ratio pravastatin vs placebo by genotype; Table 8)
Assay type: in vivo, human
Settings: All Patients; for Coronary Artery Bypass or Revascularization, n/total (%) / Total Coronary Heart Disease Events, n/total (%) / Fatal/Non-fatal Atherosclerotic CV Disease, n/total (%) / Hosp. for Cardiovascular Disease, n/total (%) / Total Cardiovascular Disease Events, n/total (%) / Fatal/Non-fatal MI (def & prob), n/total (%) / Fatal CHD/Definite Non-fatal MI, n/total (%) / Non-fatal MI (def & prob), n/total (%): Prava
Text: In order to identify genetic markers associated with acute coronary events (e.g. MI, stroke, unstable angina, congestive heart failure, etc.) or response to statin treatment for the prevention of coronary events, samples from the Cholesterol and Recurrent Events (CARE) study (a randomized multicentral double-blinded trial on secondary prevention of acute coronary events with pravastatin) (Sacks et al., 1991, Am. J. Cardiol. 68: 1436-1446) were genotyped. A well-documented myocardial infarction (MI) was one of the enrollment criteria for entry into the CARE study. Patients were enrolled in the CARE trial from 80 participating study centers. […] Patients were randomized to receive either 40 mg of pravastatin once daily or a matching placebo. The primary endpoint of the trial was death from coronary heart disease and the median duration of follow-up was 5.0 years (range, 4.0 to 6.2 years). […] Secondary endpoints of other related cardiovascular or metabolic disease events, and changes in clinical variables were also recorded in pravastatin-treated and placebo groups. All individuals included in the study had signed a written informed consent form and the study protocol was approved by the respective Institutional Review Boards (IRBs).
For genotyping SNPs in CARE patient samples, DNA was extracted from blood samples using conventional DNA extraction methods such as the QIA-amp kit from Qiagen. Genotypes were obtained on an ABI PRISM® 7900HT Sequence Detection PCR system (Applied Biosystems, Foster City, Calif.) by kinetic allele-specific PCR, similar to the method described by Germer et al. (Germer S., Holland M. J., Higuchi R. 2000, Genome Res. 10: 258-266).
Statistical analysis for association of SNPs with pravastatin treatment in cardiovascular events prevention (Table 8) was carried out using an overall logistic regression model that included an intercept, a parameter for the effect of a genotype containing two rare alleles versus a genotype containing no rare alleles, a parameter for the effect of a genotype containing one rare allele versus a genotype containing no rare alleles, a parameter for the effect of use of pravastatin versus the use of placebo, and parameters for the interaction effects between SNP genotypes and pravastatin use. The test of the overall model is a chi-square test with two degrees of freedom for analyses containing all three genotypes, and one degree of freedom for analyses containing two genotypes.
Effect sizes were estimated through odds ratios (pravastatin group versus placebo) for carriers of each genotype (groups of 0, 1, and 2 minor allele carriers). The effect was considered to be significant if p-value for testing whether any of the interactions between SNP genotypes and pravastatin use were <0.05. […] Odds ratios less than one indicate that the specific SNP allele has a protective effect and odds ratios greater than one indicate that the specific SNP allele has an adverse effect.

[1] = HLA-DPB1 hCV8851085, Coronary Artery Bypass or Revascularization
[2] = HLA-DPB1 hCV8851085, Fatal/Non-fatal Atherosclerotic CV Disease
[3] = HLA-DPB1 hCV8851085, Fatal/Non-fatal MI (def & prob)
[4] = HLA-DPB1 hCV8851085, Hosp. for Cardiovascular Disease
[5] = HLA-DPB1 hCV8851085, Total Cardiovascular Disease Events
[6] = HLA-DPB1 hCV8851085, Total Coronary Heart Disease Events
[7] = HLA-DPB1 hCV25651174, 2 Rare Alleles, n/total 20/144

CC[C@H](C)C(=O)O[C@H]1C[C@H](O)C=C2C=C[C@H](C)[C@H](CC[C@@H](O)C[C@@H](O)CC(=O)O)[C@H]21 [pravastatin]
Coronary Artery Bypass or Revascularization, n/total (%) (HLA-DPB1 hCV8851085, 0 Rare Alleles, n/total 129/919): (14.0%) | Total Coronary Heart Disease Events, n/total (%) (HLA-DPB1 hCV8851085, 0 Rare Alleles, n/total 263/919): (28.6%) | Fatal/Non-fatal Atherosclerotic CV Disease, n/total (%) (HLA-DPB1 hCV8851085, 0 Rare Alleles, n/total 301/919): (32.8%) | Hosp. for Cardiovascular Disease, n/total (%) (HLA-DPB1 hCV8851085, 0 Rare Alleles, n/total 363/919): (39.5%) | Total Cardiovascular Disease Events, n/total (%) (HLA-DPB1 hCV8851085, 0 Rare Alleles, n/total 374/919): (40.7%) | Fatal/Non-fatal MI (def & prob), n/total (%) (HLA-DPB1 hCV8851085, 1 Rare Allele, n/total 53/521): (10.2%) | Coronary Artery Bypass or Revascularization, n/total (%) (HLA-DPB1 hCV8851085, 1 Rare Allele, n/total 72/521): (13.8%) | Total Coronary Heart Disease Events, n/total (%) (HLA-DPB1 hCV8851085, 1 Rare Allele, n/total 151/521): (29.0%) | Fatal/Non-fatal Atherosclerotic CV Disease, n/total (%) (HLA-DPB1 hCV8851085, 1 Rare Allele, n/total 174/521): (33.4%) | Hosp. for Cardiovascular Disease, n/total (%) (HLA-DPB1 hCV8851085, 1 Rare Allele, n/total 209/521): (40.1%) | Total Cardiovascular Disease Events, n/total (%) (HLA-DPB1 hCV8851085, 1 Rare Allele, n/total 214/521): (41.1%) | Fatal/Non-fatal MI (def & prob), n/total (%) (HLA-DPB1 hCV8851085, 2 Rare Alleles, n/total 11/73): (15.1%) | Coronary Artery Bypass or Revascularization, n/total (%) (HLA-DPB1 hCV8851085, 2 Rare Alleles, n/total 17/73): (23.3%) | Total Coronary Heart Disease Events, n/total (%) (HLA-DPB1 hCV8851085, 2 Rare Alleles, n/total 26/73): (35.6%) | Fatal/Non-fatal Atherosclerotic CV Disease, n/total (%) (HLA-DPB1 hCV8851085, 2 Rare Alleles, n/total 29/73): (39.7%) | Hosp. for Cardiovascular Disease, n/total (%) (HLA-DPB1 hCV8851085, 2 Rare Alleles, n/total 33/73): (45.2%) | Total Cardiovascular Disease Events, n/total (%) (HLA-DPB1 hCV8851085, 2 Rare Alleles, n/total 35/73): (47.9%) | Prava vs. Placebo Odds Ratio, 0 Rare Alleles [1]: 0.68 | Prava vs. Placebo Odds Ratio, 1 Rare Alleles [1]: 0.60 | Prava vs. Placebo Odds Ratio, 2 Rare Alleles [1]: 3.54 | Prava vs. Placebo Odds Ratio, 0 Rare Alleles [2]: 0.70 | Prava vs. Placebo Odds Ratio, 1 Rare Alleles [2]: 0.79 | Prava vs. Placebo Odds Ratio, 2 Rare Alleles [2]: 2.12 | Prava vs. Placebo Odds Ratio, 0 Rare Alleles [3]: 0.57 | Prava vs. Placebo Odds Ratio, 1 Rare Alleles [3]: 0.75 | Prava vs. Placebo Odds Ratio, 2 Rare Alleles [3]: 2.07 | Prava vs. Placebo Odds Ratio, 0 Rare Alleles [4]: 0.71 | Prava vs. Placebo Odds Ratio, 1 Rare Alleles [4]: 0.74 | Prava vs. Placebo Odds Ratio, 2 Rare Alleles [4]: 1.79 | Prava vs. Placebo Odds Ratio, 0 Rare Alleles [5]: 0.70 | Prava vs. Placebo Odds Ratio, 1 Rare Alleles [5]: 0.74 | Prava vs. Placebo Odds Ratio, 2 Rare Alleles [5]: 1.77 | Prava vs. Placebo Odds Ratio, 0 Rare Alleles [6]: 0.72 | Prava vs. Placebo Odds Ratio, 1 Rare Alleles [6]: 0.76 | Prava vs. Placebo Odds Ratio, 2 Rare Alleles [6]: 2.25 | Fatal CHD/Definite Non-fatal MI, n/total (%) (HLA-DPB1 hCV25651174, 0 Rare Alleles, n/total 58/733): (7.9%) | Non-fatal MI (def & prob), n/total (%) (HLA-DPB1 hCV25651174, 0 Rare Alleles, n/total 63/733): (8.6%) | Fatal/Non-fatal MI (def & prob), n/total (%) (HLA-DPB1 hCV25651174, 0 Rare Alleles, n/total 65/733): (8.9%) | Coronary Artery Bypass or Revascularization, n/total (%) (HLA-DPB1 hCV25651174, 0 Rare Alleles, n/total 103/733): (14.1%) | Total Coronary Heart Disease Events, n/total (%) (HLA-DPB1 hCV25651174, 0 Rare Alleles, n/total 207/733): (28.2%) | Fatal/Non-fatal Atherosclerotic CV Disease, n/total (%) (HLA-DPB1 hCV25651174, 0 Rare Alleles, n/total 230/733): (31.4%) | Hosp. for Cardiovascular Disease, n/total (%) (HLA-DPB1 hCV25651174, 0 Rare Alleles, n/total 282/733): (38.5%) | Total Cardiovascular Disease Events, n/total (%) (HLA-DPB1 hCV25651174, 0 Rare Alleles, n/total 291/733): (39.7%) | Non-fatal MI (def & prob), n/total (%) (HLA-DPB1 hCV25651174, 1 Rare Allele, n/total 55/632): (8.7%) | Fatal/Non-fatal MI (def & prob), n/total (%) (HLA-DPB1 hCV25651174, 1 Rare Allele, n/total 61/632): (9.7%) | Fatal CHD/Definite Non-fatal MI, n/total (%) (HLA-DPB1 hCV25651174, 1 Rare Allele, n/total 62/632): (9.8%) | Coronary Artery Bypass or Revascularization, n/total (%) (HLA-DPB1 hCV25651174, 1 Rare Allele, n/total 87/632): (13.8%) | Total Coronary Heart Disease Events, n/total (%) (HLA-DPB1 hCV25651174, 1 Rare Allele, n/total 182/632): (28.8%) | Fatal/Non-fatal Atherosclerotic CV Disease, n/total (%) (HLA-DPB1 hCV25651174, 1 Rare Allele, n/total 218/632): (34.5%) | Hosp. for Cardiovascular Disease, n/total (%) (HLA-DPB1 hCV25651174, 1 Rare Allele, n/total 259/632): (41.0%) | Total Cardiovascular Disease Events, n/total (%) (HLA-DPB1 hCV25651174, 1 Rare Allele, n/total 265/632): (41.9%) | Non-fatal MI (def & prob), n/total (%) (HLA-DPB1 hCV25651174, 2 Rare Alleles, n/total 16/144): (11.1%) | Fatal CHD/Definite Non-fatal MI, n/total (%) [7]: (13.9%) | Fatal/Non-fatal MI (def & prob), n/total (%) [7]: (13.9%) | Coronary Artery Bypass or Revascularization, n/total (%) (HLA-DPB1 hCV25651174, 2 Rare Alleles, n/total 27/144): (18.8%) | Total Coronary Heart Disease Events, n/total (%) (HLA-DPB1 hCV25651174, 2 Rare Alleles, n/total 50/144): (34.7%) | Fatal/Non-fatal Atherosclerotic CV Disease, n/total (%) (HLA-DPB1 hCV25651174, 2 Rare Alleles, n/total 54/144): (37.5%) | Hosp. for Cardiovascular Disease, n/total (%) (HLA-DPB1 hCV25651174, 2 Rare Alleles, n/total 61/144): (42.4%)
